From US8686150B2 (Sanofi, priority 2011, dated 2014)

These molecules were tested against T1, human full-length recombinant PKC βII (Homo sapiens, UniProt P05771) (assay: Determination of PKC βII inhibition (Caliper mobility-shift kinase assay, Fluorescein-RFARKGSLRQKNV peptide substrate)). Details: example compounds at a final concentration of 1.14 μM (±0.15 μM).
T1 construct: Active human full-length recombinant PKC βII; purchased Invitrogen GmbH, Darmstadt, Germany
Type: biochemical
Outline: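 Full-length PKC βII (30 ng/ml in pre-dilution) with PS/DAG/Ca2+ activators, pH 7.4; fluorescein peptide and ATP at 3 μM and 120 μM before mixing. Reaction ran 60 min at 32 °C, was EDTA-stopped, and was read by mobility shift. % inhibition came from product/(substrate+product) peak heights, tested at 1.14 μM final.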

T1 sequence (P05771 1-673 isoform P05771-2): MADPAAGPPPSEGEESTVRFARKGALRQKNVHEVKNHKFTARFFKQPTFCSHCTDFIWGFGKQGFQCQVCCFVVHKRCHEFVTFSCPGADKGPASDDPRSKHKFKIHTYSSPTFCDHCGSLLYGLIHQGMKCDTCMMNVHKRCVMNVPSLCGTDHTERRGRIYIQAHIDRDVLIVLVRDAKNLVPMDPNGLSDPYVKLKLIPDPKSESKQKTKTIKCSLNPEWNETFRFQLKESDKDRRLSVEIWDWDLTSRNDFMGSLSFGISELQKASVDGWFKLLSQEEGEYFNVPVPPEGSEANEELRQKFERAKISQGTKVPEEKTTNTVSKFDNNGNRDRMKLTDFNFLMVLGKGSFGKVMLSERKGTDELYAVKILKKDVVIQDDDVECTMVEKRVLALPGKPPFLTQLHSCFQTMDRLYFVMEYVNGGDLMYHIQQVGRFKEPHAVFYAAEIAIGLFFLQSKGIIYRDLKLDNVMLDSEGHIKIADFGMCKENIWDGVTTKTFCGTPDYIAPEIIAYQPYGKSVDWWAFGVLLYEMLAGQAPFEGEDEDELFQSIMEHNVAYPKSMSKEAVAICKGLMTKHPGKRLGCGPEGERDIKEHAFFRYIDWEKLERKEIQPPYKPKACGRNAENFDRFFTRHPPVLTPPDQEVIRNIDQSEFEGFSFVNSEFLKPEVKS

Structure (SMILES) | inhibition at 1.14 µM | % Inhibition
Cc1n[nH]c2nc(-c3ccc(O)c(F)c3)cc(C(=O)N3C[C@H]4CC[C@@H](C3)C4N)c12 (stereo partly shown) [Example 310, (8-Amino-3-aza-bicyclo[3.2.1]oct-3-yl)-[6-(3-fluoro-4-hydroxy-phenyl)-3-methyl-1H-pyrazolo[3,4-b]pyridin-4-yl]-methanone] | 91% | 
Cc1n[nH]c2nc(-c3ccc(O)c(F)c3)cc(C(=O)N3CCNC[C@@H]3C)c12 [Example 313, [6-(3-Fluoro-4-hydroxy-phenyl)-3-methyl-1H-pyrazolo[3,4-b]pyridin-4-yl]-((S)-2-methyl-piperazin-1-yl)-methanone] | 99% | 
Cc1n[nH]c2nc(-c3ccc(O)c(F)c3)cc(C(=O)N3CCNC(C(F)(F)F)C3)c12 (stereo not shown) [Example 314, [6-(3-Fluoro-4-hydroxy-phenyl)-3-methyl-1H-pyrazolo[3,4-b]pyridin-4-yl]-(3-trifluoromethyl-piperazin-1-yl)-methanone] | 35% | 
Cc1n[nH]c2nc(-c3ccc(O)c(F)c3)cc(C(=O)N3CC(N)C3)c12 [Example 315, (3-Amino-azetidin-1-yl)-[6-(3-fluoro-4-hydroxy-phenyl)-3-methyl-1H-pyrazolo[3,4-b]pyridin-4-yl]-methanone] | 62% | 
Cc1n[nH]c2nc(-c3ccc(O)c(F)c3)cc(C(=O)NCCC3CCCN3C)c12 (stereo not shown) [Example 316, 6-(3-Fluoro-4-hydroxy-phenyl)-3-methyl-1H-pyrazolo[3,4-b]pyridine-4-carboxylic acid [2-(1-methyl-pyrrolidin-2-yl)-ethyl]-amide] | 51% | 
Cc1n[nH]c2nc(-c3ccc(O)c(F)c3)cc(C(=O)NC3CC4CCC(C3)N4C)c12 [Example 318, 6-(3-Fluoro-4-hydroxy-phenyl)-3-methyl-1H-pyrazolo[3,4-b]pyridine-4-carboxylic acid (3R)-8-methyl-8-aza-bicyclo[3.2.1]oct-3-yl)-amide] |  | 61%
Cc1n[nH]c2nc(-c3ccc(O)c(F)c3)cc(C(=O)NC3CCN(C)CC3)c12 [Example 319, 6-(3-Fluoro-4-hydroxy-phenyl)-3-methyl-1H-pyrazolo[3,4-b]pyridine-4-carboxylic acid (1-methyl-piperidin-4-yl)-amide] | 59% | 
Cc1n[nH]c2nc(-c3ccc(O)c(F)c3)cc(C(=O)N3CCNC[C@@H]3C(C)C)c12 [Example 320, [6-(3-Fluoro-4-hydroxy-phenyl)-3-methyl-1H-pyrazolo[3,4-b]pyridin-4-yl]-((S)-2-isopropyl-piperazin-1-yl)-methanone] | 72% | 
Cc1n[nH]c2nc(-c3ccc(O)c(F)c3)cc(C(=O)N3CCNC[C@H]3Cc3ccccc3)c12 [Example 321, ((R)-2-Benzyl-piperazin-1-yl)-[6-(3-fluoro-4-hydroxy-phenyl)-3-methyl-1H-pyrazolo[3,4-b]pyridin-4-yl]-methanone] | 84% | 
Cc1n[nH]c2nc(-c3ccc(O)c(F)c3)cc(C(=O)N3CC[C@@H](C4(N)CC4)C3)c12 [Example 322, [(R)-3-(1-Amino-cyclopropyl)-pyrrolidin-1-yl]-[6-(3-fluoro-4-hydroxy-phenyl)-3-methyl-1H-pyrazolo[3,4-b]pyridin-4-yl]-methanone] | 68% | 
Cc1n[nH]c2nc(-c3ccc(O)c(F)c3)cc(C(=O)N3CCC4(CNCCO4)C3)c12 (stereo not shown) [Example 323, [6-(3-Fluoro-4-hydroxy-phenyl)-3-methyl-1H-pyrazolo[3,4-b]pyridin-4-yl]-(6-oxa-2,9-diaza-spiro[4.5]dec-2-yl)-methanone] | 42% | 
Cc1n[nH]c2nc(-c3ccc(O)c(F)c3)cc(C(=O)N3CCCC4CNCCC43)c12 (stereo not shown) [Example 324, [6-(3-Fluoro-4-hydroxy-phenyl)-3-methyl-1H-pyrazolo[3,4-b]pyridin-4-yl]-(octahydro-[1,6]naphthyridin-1-yl)-methanone] | 69% | 
Cc1n[nH]c2nc(-c3ccc(O)c(F)c3)cc(C(=O)N3CCNC[C@H]3C(=O)NC(C)(C)C)c12 [Example 325, (S)-1-[6-(3-Fluoro-4-hydroxy-phenyl)-3-methyl-1H-pyrazolo[3,4-b]pyridine-4-carbonyl]-piperazine-2-carboxylic acid tert-butylamide] | 76% | 
Cc1n[nH]c2nc(-c3ccc(O)c(F)c3)cc(C(=O)N3CCN[C@@H](C(C)C)C3)c12 [Example 326, [6-(3-Fluoro-4-hydroxy-phenyl)-3-methyl-1H-pyrazolo[3,4-b]pyridin-4-yl]-((S)-3-isopropyl-piperazin-1-yl)-methanone] | 83% | 
Cc1n[nH]c2nc(-c3ccc(O)c(F)c3)cc(C(=O)N3CCNCC3c3cccnc3)c12 (stereo not shown) [Example 327, [6-(3-Fluoro-4-hydroxy-phenyl)-3-methyl-1H-pyrazolo[3,4-b]pyridin-4-yl]-(2-pyridin-3-yl-piperazin-1-yl)-methanone] | 92% | 
COC(=O)[C@H]1CNCCN1C(=O)c1cc(-c2ccc(O)c(F)c2)nc2[nH]nc(C)c12 [Example 328, (R)-1-[6-(3-Fluoro-4-hydroxy-phenyl)-3-methyl-1H-pyrazolo[3,4-b]pyridine-4-carbonyl]-piperazine-2-carboxylic acid methyl ester] | 80% | 

Structure (SMILES) | inhibition at 1.14 µM | % Inhibition
Cc1n[nH]c2nc(-c3ccc(O)c(F)c3)cc(C(=O)N3CCC4(CC3)CNC4)c12 [Example 329, (2,7-Diaza-spiro[3.5]non-7-yl)-[6-(3-fluoro-4-hydroxy-phenyl)-3-methyl-1H-pyrazolo[3,4-b]pyridin-4-yl]-methanone] | 72% | 
Cc1n[nH]c2nc(-c3ccc(O)c(F)c3)cc(C(=O)N3CC4(CCNCC4)c4ccccc43)c12 [Example 330, (1,2-Dihydro-5-spiro[3H-indole-3,4′-piperidin]-1-yl)-[6-(3-fluoro-4-hydroxy-phenyl)-3-methyl-1H-pyrazolo[3,4-b]pyridin-4-yl]-methanone] | 45% | 
Cc1n[nH]c2nc(-c3ccc(O)c(F)c3)cc(C(=O)N(C)C3CCN(C)CC3)c12 [Example 331, 6-(3-Fluoro-4-hydroxy-phenyl)-3-methyl-1H-pyrazolo[3,4-b]pyridine-4-carboxylic acid methyl-(1-methyl-piperidin-4-yl)-amide] | 41% | 
CCN1CCCC(NC(=O)c2cc(-c3ccc(O)c(F)c3)nc3[nH]nc(C)c23)C1 (stereo not shown) [Example 332, 6-(3-Fluoro-4-hydroxy-phenyl)-3-methyl-1H-pyrazolo[3,4-b]pyridine-4-carboxylic acid (1-ethyl-piperidin-3-yl)-amide] | 63% | 
Cc1n[nH]c2nc(-c3ccc(O)c(F)c3)cc(C(=O)NC3CN4CCC3CC4)c12 (stereo not shown) [Example 333, 6-(3-Fluoro-4-hydroxy-phenyl)-3-methyl-1H-pyrazolo[3,4-b]pyridine-4-carboxylic acid (1-aza-bicyclo[2.2.2]oct-3-yl)-amide] | 67% | 
Cc1n[nH]c2nc(-c3ccc(O)c(F)c3)cc(C(=O)N3C[C@]4(C)CN(C)C[C@](C)(C3)C4O)c12 (stereo partly drawn) [Example 334, [6-(3-Fluoro-4-hydroxy-phenyl)-3-methyl-1H-pyrazolo[3,4-b]pyridin-4-yl]-((1S,5R)-9-hydroxy-1,5,7-trimethyl-3,7-diaza-bicyclo[3.3.1]non-3-yl)-methanone] | 53% | 
Cc1n[nH]c2nc(-c3ccc(O)c(F)c3)cc(C(=O)N(C)C3CCNCC3)c12 [Example 335, 6-(3-Fluoro-4-hydroxy-phenyl)-3-methyl-1H-pyrazolo[3,4-b]pyridine-4-carboxylic acid methyl-piperidin-4-yl-amide] | 61% | 
Cc1n[nH]c2nc(-c3ccc(O)c(F)c3)cc(C(=O)N3CCC(N)C3)c12 (stereo not shown) [Example 336, (3-Amino-pyrrolidin-1-yl)-[6-(3-fluoro-4-hydroxy-phenyl)-3-methyl-1H-pyrazolo[3,4-b]pyridin-4-yl]-methanone] | 73% | 
Cc1n[nH]c2nc(-c3ccc(O)c(F)c3)cc(C(=O)N3CCN[C@H](C)C3)c12 [Example 337, [6-(3-Fluoro-4-hydroxy-phenyl)-3-methyl-1H-pyrazolo[3,4-b]pyridin-4-yl]-((R)-3-methyl-piperazin-1-yl)-methanone] | 93% | 
Cc1n[nH]c2nc(-c3ccc(O)c(F)c3)cc(C(=O)NC3CCC(N)CC3)c12 (stereo not shown) [Example 338, 6-(3-Fluoro-4-hydroxy-phenyl)-3-methyl-1H-pyrazolo[3,4-b]pyridine-4-carboxylic acid (4-amino-cyclohexyl)-amide] | 68% | 
Cc1n[nH]c2nc(-c3ccc(O)c(F)c3)cc(C(=O)N3CC4(CCNCC4)C3)c12 [Example 339, (2,7-Diaza-spiro[3.5]non-2-yl)-[6-(3-fluoro-4-hydroxy-phenyl)-3-methyl-1H-pyrazolo[3,4-b]pyridin-4-yl]-methanone] | 73% | 
Cc1n[nH]c2nc(-c3ccc(O)c(F)c3)cc(C(=O)N3CCC4(CCNC4)C3)c12 (stereo not shown) [Example 340, (2,7-Diaza-spiro[4.4]non-2-yl)-[6-(3-fluoro-4-hydroxy-phenyl)-3-methyl-1H-pyrazolo[3,4-b]pyridin-4-yl]-methanone] | 67% | 
Cc1n[nH]c2nc(-c3ccc(O)c(F)c3)cc(C(=O)N3CCC4(CCNC4)CC3)c12 [Example 341, (2,8-Diaza-spiro[4.5]dec-8-yl)-[6-(3-fluoro-4-hydroxy-phenyl)-3-methyl-1H-pyrazolo[3,4-b]pyridin-4-yl]-methanone] | 53% | 
Cc1n[nH]c2nc(-c3ccc(O)c(F)c3)cc(C(=O)N3CCC4(CC3)CNCCO4)c12 [Example 342, [6-(3-Fluoro-4-hydroxy-phenyl)-3-methyl-1H-pyrazolo[3,4-b]pyridin-4-yl]-(1-oxa-4,9-diaza-spiro[5.5]undec-9-yl)-methanone] | 60% | 
Cc1n[nH]c2nc(-c3ccc(O)c(F)c3)cc(C(=O)N3CCC4(CCNCC4)C3)c12 [Example 343, (2,8-Diaza-spiro[4.5]dec-2-yl)-[6-(3-fluoro-4-hydroxy-phenyl)-3-methyl-1H-pyrazolo[3,4-b]pyridin-4-yl]-methanone] | 49% | 
